What was measured:
Assay type in all cases: in vivo
[1] = test system: winter barley (Hordeum vulgare); assay: Test B postemergence plant response; settings: Postemergence
Method in brief: (§1)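 Plants grown in peat/vermiculite medium were sprayed postemergence at 2–18 cm height (1- to 4-leaf stage). After 13–15 days in the greenhouse, response was rated visually against untreated controls on a 0–100 scale (0 no effect, 100 complete control).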

[2] = test system: windgrass (Apera spica-venti); assay: Test B postemergence plant response; settings: Postemergence
Method in brief: as §1

[3] = test system: canarygrass (Phalaris minor); assay: Test B postemergence plant response; settings: Postemergence
Method in brief: as §1

[4] = test system: chickweed (Stellaria media); assay: Test B postemergence plant response; settings: Postemergence
Method in brief: as §1

[5] = test system: pigweed (Amaranthus retroflexus); assay: Test A pre-/postemergence plant response; settings: for Pigweed plant response rating: visual injury, 0 to 100 scale (0 no effect, 100 complete control), approx. ten days
Method in brief: (§2)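 Visual injury rating on a 0–100 scale (0 = no effect, 100 = complete control) was made versus untreated controls after about ten days in the greenhouse. Compounds, formulated in a non-phytotoxic solvent mix containing surfactant, were sprayed preemergence onto loam/sand soil and postemergence onto one- to two-leaf plants.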

[6] = test system: giant foxtail (Setaria faberii); assay: Test A pre-/postemergence plant response; settings: for Foxtail, Giant plant response rating: visual injury, 0 to 100 scale (0 no effect, 100 complete control), approx. ten days
Method in brief: as §2

corn (Zea mays) = assay: Test A pre-/postemergence plant response; settings: for Corn plant response rating: visual injury, 0 to 100 scale (0 no effect, 100 complete control), approx. ten days
Method in brief: as §2

[7] = test system: velvetleaf (Abutilon theophrasti); assay: Test A pre-/postemergence plant response; settings: for Velvetleaf plant response rating: visual injury, 0 to 100 scale (0 no effect, 100 complete control), approx. ten days
Method in brief: as §2

[8] = test system: large crabgrass (Digitaria sanguinalis); assay: Test A pre-/postemergence plant response; settings: for Crabgrass, Large plant response rating: visual injury, 0 to 100 scale (0 no effect, 100 complete control), approx. ten days
Method in brief: as §2

[9] = test system: morningglory (Ipomoea spp.); assay: Test A pre-/postemergence plant response; settings: for Morningglory plant response rating: visual injury, 0 to 100 scale (0 no effect, 100 complete control), approx. ten days
Method in brief: as §2

[10] = test system: barnyardgrass (Echinochloa crus-galli); assay: Test A pre-/postemergence plant response; settings: for Barnyardgrass plant response rating: visual injury, 0 to 100 scale (0 no effect, 100 complete control), approx. ten days
Method in brief: as §2

[11] = test system: wheat (Triticum aestivum); assay: Test A pre-/postemergence plant response; settings: for Wheat plant response rating: visual injury, 0 to 100 scale (0 no effect, 100 complete control), approx. ten days
Method in brief: as §2

[12] = 31 g ai/ha, 0 to 100 scale (0 no effect, 100 complete control)
[13] = 62 g ai/ha, scale 0 to 100 (0 no effect, 100 complete control)
[14] = 125 g ai/ha, scale 0 (no effect) to 100 (complete control), 13 to 15 days
[15] = 250 g ai/ha, scale 0 to 100 (0 no effect, 100 complete control), 13 to 15 days
[16] = Postemergence, 125 g ai/ha, 0 to 100 scale where 0 is no effect and 100 is complete control
[17] = Preemergence, 125 g ai/ha, 0 to 100 scale, 0 = no effect, 100 = complete control
[18] = Preemergence, 500 g ai/ha, 0 to 100 scale, 0 = no effect, 100 = complete control

SMILES: CCCCn1c(-c2cccc(F)c2)ncc(C(=O)C2=C(O)C3CCC(C3)C2=O)c1=O (stereo not drawn) [Compound 237]
- Plant response rating, Barley [1, 12]: 5
- Plant response rating, Barley [1, 13]: 15
- Plant response rating, Barley [1, 14]: 40
- Plant response rating, Barley [1, 15]: 40
- Plant response rating, Windgrass [2, 12]: 60
- Plant response rating, Windgrass [2, 13]: 90
- Plant response rating, Windgrass [2, 14]: 98
- Plant response rating, Windgrass [2, 15]: 100
- Plant response rating, Canarygrass [3, 12]: 30
- Plant response rating, Canarygrass [3, 13]: 40
- Plant response rating, Canarygrass [3, 14]: 50
- Plant response rating, Canarygrass [3, 15]: 50
- Plant response rating, Chickweed [4, 12]: 90
- Plant response rating, Chickweed [4, 13]: 98
- Plant response rating, Chickweed [4, 14]: 100
- Plant response rating, Chickweed [4, 15]: 100
- Plant response rating, Pigweed [5, 16]: 90
- Pigweed plant response rating ([5]; Postemergence, 500 g ai/ha): 100
- Plant response rating, Pigweed [5, 17]: 30
- Plant response rating, Pigweed [5, 18]: 100
- Plant response rating, Foxtail, Giant [6, 16]: 90
- Foxtail, Giant plant response rating ([6]; Postemergence, 500 g ai/ha): 100
- Plant response rating, Foxtail, Giant [6, 17]: 40
- Plant response rating, Foxtail, Giant [6, 18]: 90
- Plant response rating, Corn (corn (Zea mays); [16]): 40
- Corn plant response rating (corn (Zea mays); Postemergence, 500 g ai/ha): 80
- Plant response rating, Corn (corn (Zea mays); [17]): 0
- Plant response rating, Corn (corn (Zea mays); [18]): 50
- Plant response rating, Velvetleaf [7, 16]: 100
- Velvetleaf plant response rating ([7]; Postemergence, 500 g ai/ha): 100
- Plant response rating, Velvetleaf [7, 17]: 80
- Plant response rating, Velvetleaf [7, 18]: 100
- Plant response rating, Crabgrass, Large [8, 16]: 80
- Crabgrass, Large plant response rating ([8]; Postemergence, 500 g ai/ha): 100
- Plant response rating, Crabgrass, Large [8, 17]: 40
- Plant response rating, Crabgrass, Large [8, 18]: 100
- Plant response rating, Morningglory [9, 16]: 100
- Morningglory plant response rating ([9]; Postemergence, 500 g ai/ha): 100
- Plant response rating, Morningglory [9, 17]: 10
- Plant response rating, Morningglory [9, 18]: 80
- Plant response rating, Barnyardgrass [10, 16]: 100
- Barnyardgrass plant response rating ([10]; Postemergence, 500 g ai/ha): 100
- Plant response rating, Barnyardgrass [10, 17]: 20
- Plant response rating, Barnyardgrass [10, 18]: 90
- Plant response rating, Wheat [11, 16]: 20
- Wheat plant response rating ([11]; Postemergence, 500 g ai/ha): 70
- Plant response rating, Wheat [11, 17]: 0
- Plant response rating, Wheat [11, 18]: 30

SMILES: COCCCn1c(-c2cccc(F)c2)ncc(C(=O)C2=C(O)C3CCC(C3)C2=O)c1=O (stereo not drawn) [Compound 238]
- Plant response rating, Barley [1, 12]: 10
- Plant response rating, Barley [1, 13]: 30
- Plant response rating, Barley [1, 14]: 35
- Plant response rating, Barley [1, 15]: 40
- Plant response rating, Windgrass [2, 12]: 45
- Plant response rating, Windgrass [2, 13]: 70
- Plant response rating, Windgrass [2, 14]: 85
- Plant response rating, Windgrass [2, 15]: 95
- Plant response rating, Canarygrass [3, 12]: 20
- Plant response rating, Canarygrass [3, 13]: 25
- Plant response rating, Canarygrass [3, 14]: 30
- Plant response rating, Canarygrass [3, 15]: 30
- Plant response rating, Chickweed [4, 12]: 80
- Plant response rating, Chickweed [4, 13]: 90
- Plant response rating, Chickweed [4, 14]: 100
- Plant response rating, Chickweed [4, 15]: 100
- Plant response rating, Pigweed [5, 16]: 100
- Pigweed plant response rating ([5]; Postemergence, 500 g ai/ha): 100
- Plant response rating, Pigweed [5, 17]: 100
- Plant response rating, Pigweed [5, 18]: 100
- Plant response rating, Foxtail, Giant [6, 16]: 90
- Foxtail, Giant plant response rating ([6]; Postemergence, 500 g ai/ha): 100
- Plant response rating, Foxtail, Giant [6, 17]: 50
- Plant response rating, Foxtail, Giant [6, 18]: 90
- Plant response rating, Corn (corn (Zea mays); [16]): 40
- Corn plant response rating (corn (Zea mays); Postemergence, 500 g ai/ha): 80
- Plant response rating, Corn (corn (Zea mays); [17]): 0
- Plant response rating, Corn (corn (Zea mays); [18]): 50
- Plant response rating, Velvetleaf [7, 16]: 100
- Velvetleaf plant response rating ([7]; Postemergence, 500 g ai/ha): 100
- Plant response rating, Velvetleaf [7, 17]: 90
- Plant response rating, Velvetleaf [7, 18]: 100
- Plant response rating, Crabgrass, Large [8, 16]: 90
- Crabgrass, Large plant response rating ([8]; Postemergence, 500 g ai/ha): 100
- Plant response rating, Crabgrass, Large [8, 17]: 90
- Plant response rating, Crabgrass, Large [8, 18]: 100
- Plant response rating, Morningglory [9, 16]: 100
- Morningglory plant response rating ([9]; Postemergence, 500 g ai/ha): 100
- Plant response rating, Morningglory [9, 17]: 40
- Plant response rating, Morningglory [9, 18]: 90
- Plant response rating, Barnyardgrass [10, 16]: 100
- Barnyardgrass plant response rating ([10]; Postemergence, 500 g ai/ha): 100
- Plant response rating, Barnyardgrass [10, 17]: 70
- Plant response rating, Barnyardgrass [10, 18]: 100
- Plant response rating, Wheat [11, 16]: 50
- Wheat plant response rating ([11]; Postemergence, 500 g ai/ha): 80
- Plant response rating, Wheat [11, 17]: 0
- Plant response rating, Wheat [11, 18]: 40
